Test results from patent US12685312B2, “Sulfonamide apyrase inhibitors” (Texas Crop Science, Inc., priority 2022, dated 2026).

Tests used:
apyrase = experiment: Screen for apyrase inhibitors (Method 1, in vitro phosphate-release absorbance assay); format: biochemical; conditions: inhibitor conc at 1 mM stock, 1 hr room temperature, absorbance 630 nm; rounded average of two assay results
Summary of the method: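 Phosphate-release colorimetric assay (Windsor method) in 60 mM Hepes, 3 mM MgCl2, 3 mM CaCl2, 3 mM ATP, pH 6.5, with compound or DMSO control added. Released phosphate developed with ammonium molybdate and ascorbic acid/TCA, then stopped with citrate/acetic acid.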

[1] = tested on: Zymoseptoria tritici on wheat; experiment: Greenhouse crop test (Method 3), Zymoseptoria tritici on wheat; format: in vivo; conditions: for enhancement of Imtrex over Imtrex alone: Imtrex 0.02 L/ha
Experimental: (§1) Method 3: Greenhouse Crop Tests
In this method, exemplary compounds were evaluated for their ability to control Zymoseptoria tritici on wheat, Botrytis cinerea on tomatoes, Asian Soya Rust (Phakopsora pachyrhizi) on soybean, and Brown Rust (Puccinia recondita) on wheat, in a controlled greenhouse environment in combination with one of four fungicides, Amistar, Imtrex, Proline or Balaya. In these studies, soybean cultivar Siverka, tomato (Money maker) and wheat plants (JB Diego) were used. Seeds were sown in 9 cm diameter pots to a depth of 1 to 2 cm using Petersfield potting compost (75% medium grade peat, 12% screened sterilized loam, 3% medium grade vermiculite, 10% grit (5 mm screened, lime free), 1.5 kg PG mix per m3, lime to pH5.5-6.0 and wetting agent (Vitax Ultrawet 200 ml per m3) and germinated/grown at 23 C under a 16 h day/8 h night light regime. Plants were treated two to three weeks after sowing when they were at the BBCH 11 growth stage (first pair of true leaves (unifoliate) unfolded. A track sprayer was used to treat the plants with the mixture of commercial fungicide and test compound using a water volume of 200 L/ha. Plants were inoculated with the appropriate fungi (pathogen) 24 hours after treatment. Fungal pathogens used were Botrytis cinerea (Grey mold on tomato plants), Zymoseptoria tritici (Septoria leaf blotch on wheat plants), Puccinia triticina (Brown rust on wheat plants) and Phakopsora pachyrhizi (Asian soy rust on soybean plants). Four replicates were used for each combination of fungicide, pathogen and test compound. Each plant was evaluated once the disease symptoms were fully expressed between seven to twenty days (depending on the pathogen) for % control of the disease. Appropriate controls were used for all experiments, including an ‘inoculation check’ wherein plants were inoculated with their specific pathogen to assess disease levels. Also, each commercial fungicide was tested on its own as a part of each treatment, this being benchmark against which the experimental compounds were evaluated. […] That is, the present compounds, although not fungicidal by themselves, enhance the activity of fungicides, thus the enhancer compounds work synergistically in combination with fungicides to control disease.
In these studies the fungicide was applied at the following rates

[2] = tested on: plant pathogenic fungi (Zymoseptoria tritici strains, Microdochium nivale); experiment: In vitro combination assay (Method 2), overall comparison with Roux Compound 13; format: cell-based; conditions: azoxystrobin, fluxapyroxad, desthio prothioconazole; three fungal strains
Experimental: Method 2: In Vitro Assessment of Combination Activity
Selected compounds were assessed in combination with fungicides against a range of commercially important plant pathogenic fungi.
The test was conducted as follows. A fungicide was applied to a fungal plant pathogen at a rate slightly below that at which it gave any control, in combination with a suitable dose of the test compound. The test compound was recorded as active if control of the pathogen was observed.
In more detail, the test was conducted as follows. For each combination of fungicide, pathogen and test compound, the following wells were used. Well 1 contained a fungal pathogen growing on agar, and a fungicide at a rate just below that at which it gave any control of the pathogen. Well 2 was the same as Well 1, except that the test compound was also added at Rate 1. Well 3 was the same as Well 2, except that the test compound was added at Rate 2, where Rate 2 was higher than Rate 1. Finally, as a benchmark, Well 4 was the same as Well 1, except that it contained the fungicide at a higher rate, at which it gave partial control of the pathogen. Each of the Wells 1 to 4 were run in duplicate, giving a total of 8 wells for each combination of fungicide, pathogen and test compound. For each well, after a suitable period of incubation, a visual assessment of the % control of the pathogen by the fungicide was made.
The following fungicides were used in this assay: azoxystrobin, fluxapyroxad, and desthio prothioconazole. The following fungal pathogens were used in this assay: First, a strain of Zymoseptoria tritici with a reduced susceptibility to strobilurin fungicides; second a strain of Zymoseptoria tritici with a reduced susceptibility to SDHI fungicides (i.e., those that inhibit succinate dehydrogenase); and third, Microdochium nivale.

[3] = tested on: Brown Rust (Puccinia recondita) on wheat; experiment: Greenhouse crop test (Method 3), Brown Rust on wheat; format: in vivo; conditions: Imtrex 0.45 L/ha
Experimental: as §1
(§2) In this method, exemplary compounds were evaluated for their ability to control Zymoseptoria tritici on wheat, Botrytis cinerea on tomatoes, Asian Soya Rust (Phakopsora pachyrhizi) on soybean, and Brown Rust (Puccinia recondita) on wheat, in a controlled greenhouse environment in combination with one of four fungicides, Amistar, Imtrex, Proline or Balaya. In these studies, soybean cultivar Siverka, tomato (Money maker) and wheat plants (JB Diego) were used. […] Each plant was evaluated once the disease symptoms were fully expressed between seven to twenty days (depending on the pathogen) for % control of the disease. […] Also, each commercial fungicide was tested on its own as a part of each treatment, this being benchmark against which the experimental compounds were evaluated. […]

[4] = tested on: Botrytis cinerea on tomatoes; experiment: Greenhouse crop test (Method 3), Botrytis cinerea on tomatoes; format: in vivo; conditions: Botrytis cinerea on tomato, Imtrex 0.005 L/ha
Experimental: as §1
In this method, exemplary compounds were evaluated for their ability to control Zymoseptoria tritici on wheat, Botrytis cinerea on tomatoes, Asian Soya Rust (Phakopsora pachyrhizi) on soybean, and Brown Rust (Puccinia recondita) on wheat, in a controlled greenhouse environment in combination with one of four fungicides, Amistar, Imtrex, Proline or Balaya. In these studies, soybean cultivar Siverka, tomato (Money maker) and wheat plants (JB Diego) were used. Seeds were sown in 9 cm diameter pots to a depth of 1 to 2 cm using Petersfield potting compost (75% medium grade peat, 12% screened sterilized loam, 3% medium grade vermiculite, 10% grit (5 mm screened, lime free), 1.5 kg PG mix per m3, lime to pH5.5-6.0 and wetting agent (Vitax Ultrawet 200 ml per m3) and germinated/grown at 23 C under a 16 h day/8 h night light regime. Plants were treated two to three weeks after sowing when they were at the BBCH 11 growth stage (first pair of true leaves (unifoliate) unfolded. A track sprayer was used to treat the plants with the mixture of commercial fungicide and test compound using a water volume of 200 L/ha. Plants were inoculated with the appropriate fungi (pathogen) 24 hours after treatment. Fungal pathogens used were Botrytis cinerea (Grey mold on tomato plants), Zymoseptoria tritici (Septoria leaf blotch on wheat plants), Puccinia triticina (Brown rust on wheat plants) and Phakopsora pachyrhizi (Asian soy rust on soybean plants). Four replicates were used for each combination of fungicide, pathogen and test compound. Each plant was evaluated once the disease symptoms were fully expressed between seven to twenty days (depending on the pathogen) for % control of the disease. Appropriate controls were used for all experiments, including an ‘inoculation check’ wherein plants were inoculated with their specific pathogen to assess disease levels. Also, each commercial fungicide was tested on its own as a part of each treatment, this being benchmark against which the experimental compounds were evaluated. […]

[5] = tested on: Asian Soya Rust (Phakopsora pachyrhizi) on soybean; experiment: Greenhouse crop test (Method 3), Asian Soya Rust on soybean; format: in vivo; conditions: Proline 0.15 L/ha
Experimental: as §1, §2

| SMILES | % Inhibition of Apyrase (apyrase) | enhancement of Balaya ([1]; Balaya 0.0015 L/ha) | enhancer activity in the combination assay compared with Roux Compound 13 [2] | enhancement of Imtrex over Imtrex alone [1] | additional Brown Rust control benefit in combination with Imtrex over Imtrex alone [3] | enhancement in combination with Imtrex over Imtrex alone [4] | enhancement of the activity of Proline [5] |
| --- | --- | --- | --- | --- | --- | --- | --- |
| O=C(Nc1ccc2c(c1)OCO2)c1ccc(S(=O)(=O)Nc2ccccc2Cl)cc1 [I-388, N-(benzo[d][1,3]dioxol-5-yl)-4-(N-(2-chlorophenyl)sulfamoyl)benzamide] | 63% | greater than 45% |  |  |  |  |  |
| O=C(Nc1cccc(-c2ccn[nH]2)c1)c1cccc(S(=O)(=O)Nc2ccc(Br)cc2)c1 [I-239, N-(3-(1H-pyrazol-5-yl)phenyl)-3-(N-(4-bromophenyl)sulfamoyl)benzamide] | 73% |  | superior enhancer activity than Roux Compound 13 | about 30% |  |  |  |
| Cc1ccc(NC(=O)c2cccc(S(=O)(=O)Nc3cccc(Cl)c3)c2)nc1 [I-595, 3-(N-(3-chlorophenyl)sulfamoyl)-N-(5-methylpyridin-2-yl)benzamide] | 36% |  |  |  | greater than 40% |  |  |
| O=C(Nc1ccc2c(c1)OCO2)c1ccccc1NS(=O)(=O)c1cccc(C(F)(F)F)c1 [I-213, N-(benzo[d][1,3]dioxol-5-yl)-2-((3-(trifluoromethyl)phenyl)sulfonamido) benzamide] | 71% |  | superior enhancer activity than Roux Compound 13 |  |  | about 30% |  |
| O=C(Nc1ccc(Br)cc1)c1cccc(S(=O)(=O)Nc2ccc(F)cc2)c1 [I-222, N-(4-bromophenyl)-3-(N-(4-fluorophenyl)sulfamoyl)benzamide] | 71% |  | superior enhancer activity than Roux Compound 13 |  |  |  | greater than 60% |
| O=C1CSc2ccc(C(=O)Nc3cccc(S(=O)(=O)Nc4ccc(Br)cc4)c3)cc2N1 [I-198, N-(3-(N-(4-bromophenyl)sulfamoyl)phenyl)-3-oxo-3,4-dihydro-2H-benzo[b][1,4]thiazine-6-carboxamide] | 79% |  | superior enhancer activity than Roux Compound 13 | about 30% |  |  | over 90% |
| O=C(Nc1ccccc1S(=O)(=O)N1CCCC1)c1cccc(C(F)(F)F)c1 [I-826, N-(2-(pyrrolidin-1-ylsulfonyl)phenyl)-3-(trifluoromethyl)benzamide] | 40% |  |  |  | greater than 50% |  |  |
| Cc1ccc(C(=O)Nc2ccccc2S(=O)(=O)Nc2ccccc2)cc1F [I-236, 3-fluoro-4-methyl-N-(2-(N-phenylsulfamoyl)phenyl)benzamide] | 30% |  | superior enhancer activity than Roux Compound 13 |  |  | about 30% |  |
| NS(=O)(=O)c1cccc(NC(=O)c2ccc(S(=O)(=O)Nc3ccc(Cl)cc3)cc2)c1 [I-387, 4-(N-(4-chlorophenyl)sulfamoyl)-N-(3-sulfamoylphenyl)benzamide] | 65% |  |  |  |  | about 30% |  |
| Cc1ccc(NS(=O)(=O)c2ccc(C(=O)N3CCc4ccccc43)cc2)cc1 [I-385, 4-(indoline-1-carbonyl)-N-(p-tolyl)benzenesulfonamide] | 65% |  |  | greater than 40% |  |  |  |
